According to PMC11666850, “Development and evaluation of deuterated [^18F]JHU94620 isotopologues for the non-invasive assessment of the cannabinoid type 2 receptor in brain” (EJNMMI Radiopharmacy and Chemistry, 2024):

Columns and labels:
[1] = Ex vivo radiometabolite analysis in CD-1 mice
Method: Female adult CD-1 mice (25–42 g body weight) were used for radiometabolite analysis of [^18F]JHU94620-d4 (n = 2, 33 and 34 MBq) and [^18F]JHU94620-d8 (n = 3, 26–33 MBq) at 30 min after intravenous tail vein injection of the radiotracer to allow for the comparison of radiometabolite analysis of [^18F]JHU94620 (Moldovan et al. [2016]). The mice were immobilized by short isoflurane narcosis for the injection of the radiotracer in a restrainer and awakened mice were kept in an isolated cage until euthanisation by cervical dislocation under isoflurane narcosis. Male Wistar rats (n = 12, 613–794 g) were used for radiometabolite analysis of [^18F]JHU94620-d8 at different time points (5, 15, 30 and 60 min p.i.) after intravenous tail vein injection of the radiotracer (37–74 MBq) for the correction of the input function in pharmacokinetic analysis. Rats were kept under isoflurane narcosis (gas mixture: 2.5% isoflurane and O2) on a warmed plate until euthanization by decapitation of deep narcotized animals. Plasma samples were obtained by centrifugation with 5500 g of blood samples for 2 min at 4 °C. Resected tissues brain and spleen were kept on ice and minced for 3 × 20 s with adding 0.5 to 1 mL of 0.9% NaCl using a Precellys lysing kit and Minilys homogenizer (Bertin Technologies SAS, Montigny-le-Bretonneux, France).
The samples were further processed for subsequent radio-chromatographic analyses. Two consecutive extractions were performed in duplicates for plasma and brain determinations. Plasma, brain and spleen samples were added to the four time the volume of an ice-cold MeOH/H2O mixture (9:1, v/v). The samples were vortexed for 3 min, incubated on ice for 5 min and centrifuged at 8,600 g for 5 min. Supernatants were collected and the precipitates were re-dissolved in 100 µL of extraction solvent and the extraction procedure was repeated. The activities of supernatants and precipitates were measured in a γ-counter (1480 WIZARD, Perkin Elmer), and the extraction efficiencies were calculated as the ratio of radioactivity in the supernatant to the radioactivity in the original sample (supernatant + precipitate). The supernatants from both extractions were combined, concentrated at 70 °C under argon stream up to a remaining volume of 100 µL, and subsequently analysed by analytical radio-HPLC (method A or B).

in vitro = in vitro ADME; details: microsomes, pH 7.4
Method: For microsomal incubations liver microsomes from human (HLM, 50 donors, 20 mg/mL) and rat (RLM, Sprague Dawley, 20 mg/mL) were purchased from Thermo Fisher Scientific GmbH (Dreieich, Germany). Testosterone and β-nicotinamide adenine dinucleotide 2′-phosphate reduced tetrasodium salt (NADPH) were purchased from Sigma-Aldrich (Merck KGaA, Darmstadt, Germany) and Dulbecco’s PBS (DPBS) (without Ca^2+ and Mg^2+) was purchased from Biochrom GmbH (Berlin, Germany). Analyses of samples for comparison of radiometabolite patterns were performed by radio-HPLC using method B, for determination of time dependency of the metabolic depletion using method C.
The final concentrations are given in brackets. […] The mixtures were vortexed and shaken gently at 37 °C using the BioShake iQ (QUANTIFOIL Instruments, Jena, Germany) for 5, 10, 15, 30, 45, and 60 min (for HLM) or 15, 30, 45, and 60 min (for RLM). […] The supernatants were separated and analyzed by radio-HPLC to determine the fractions of unchanged [^18F]JHU94620-d8. Efficiencies of extracted activity were determined as described in “Quantification of radiometabolites”. […]
To determine the metabolic stability in HLM and RLM, both the natural logarithm of the determined unchanged percentage of [^18F]JHU94620-d8 was plotted versus incubation time, which allowed the calculation of the in vitro half-lives as described previously (Chai et al. [2022]).

human CB2R (hCB2R) = molecular target: T1, human CB2R (hCB2R) (Homo sapiens, UniProt P34972); experiment: Homologous competition binding, CHO(hCB2R) cell membranes
T1 construct: expressed in transfected cells; host or cells: CHO(hCB2R) cells, obtained from Paul L. Prather, University of Arkansas for Medical Sciences
T1 sequence (P34972 whole entry): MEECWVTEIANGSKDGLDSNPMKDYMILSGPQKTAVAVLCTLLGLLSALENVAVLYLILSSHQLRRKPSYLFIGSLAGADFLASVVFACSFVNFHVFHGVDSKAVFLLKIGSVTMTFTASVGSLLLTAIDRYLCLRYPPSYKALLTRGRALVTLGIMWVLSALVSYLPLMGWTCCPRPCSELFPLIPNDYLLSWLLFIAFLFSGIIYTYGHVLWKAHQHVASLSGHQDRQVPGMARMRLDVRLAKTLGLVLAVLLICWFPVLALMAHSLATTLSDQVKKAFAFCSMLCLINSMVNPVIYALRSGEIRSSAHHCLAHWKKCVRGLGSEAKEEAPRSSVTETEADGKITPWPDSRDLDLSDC
Method: For binding studies crude homogenates of CHO(hCB2R) cells (obtained from Paul L. Prather, Department of Pharmacology and Toxicology, College of Medicine, University of Arkansas for Medical Sciences, USA) were incubated with the reference compound (self-blocking) or the CB2R-specific partial agonist GW405833 (Tocris Bioscience, Bristol, UK) with indicated concentrations at room temperature for 90 min. The total volume of 1 mL of each sample consisted of 600 µL incubation buffer (50 mM Tris HCl pH7.4, 5 mM MgCl2, 1 mM EDTA and 1% Bovine Serum Albumin), 200 µL cell membrane homogenates, 100 µL competitor or binding buffer (total binding) and 100 µl of binding buffer with [^18F]JHU94620-d8 (about 100 kBq per vial, corresponding to 0.8 to 1.6 nM). Incubation was terminated by rapid filtration through a GF-B glass fibre filter, pre-treated with 0.5% PVP with 0.1% Tween 20 solution, using a 48-well cell harvester, washed six times with buffer and filter bound activity was subsequently measured in a γ-counter (1480 WIZARD, Perkin Elmer, Turku, Finland).
The KD values were calculated with GraphPad Prism according to the modified Cheng-Prusoff method for homologous competitive binding studies, where the KD = Ki = IC50—[radioligand] and the Bmax = specific binding / [radioligand] / ((KD + [radioligand])) (Motulsky and Neubig [2000]), assuming a total protein content of 8.2% (1.3 10^–4 µg protein per voxel) in the spleen (Zaia et al. [2000]) or by determining the protein concentration of the cell membrane lysates using a BCA assay (Thermo Scientific, Braunschweig, Germany). The fractional occupancy defined as occupied binding sites per total binding sites is used to describe the binding fraction specifically bound to CB2R compared to unspecific binding, where [L] is the concentration of the ligand at the start of incubation.

[2] = female, CD-1, mouse, in vivo, 30 min

[2H]C([2H])([18F])C([2H])([2H])C([2H])([2H])C([2H])([2H])n1c(C)c(C)s/c1=N\C(=O)C1C(C)(C)C1(C)C [[^18F]JHU94620-d8]
percentage printed at the radiotracer peak of the representative radio-HPLC chromatogram (Mice) ([1]; CD-1, mouse, in vivo, 30 min): 80%
parent fraction in brain, higher compared to the non-deuterated isotopologue ([1]; CD-1 mice, brain, 30 min p.i.): 50%
parent fraction in brain ([1]; CD-1 mice, brain, 30 min p.i., mean ± SD): 0.72 ± 0.05
in vivo metabolic stability (comparison in words) ([1]; female, CD-1, mouse, in vivo, 0.5 h): slightly superior to [^18F]JHU94620-d4
parent fraction in blood plasma [1, 2]: 0.13 ± 0.04
parent fraction in spleen [1, 2]: 0.87 ± 0.10
half-life (in vitro; Sprague Dawley, rat): 10.8 ± 2.4 min
half-life (in vitro; human): 2.1 ± 0.7 min
Kd (human CB2R (hCB2R)): 1.47 nM
Bmax (human CB2R (hCB2R); CHO(hCB2R) cell membrane fractions): 2.7 pmol mg^−1 protein
